{"source": "patent US7538135B2", "about": "“Benzenesulfonylamino compounds and pharmaceutical compositions containing these compounds” (Novartis AG, priority 2003, dated 2009)", "key": {"GST-hPPARα LBD": {"molecular_target": "T1, GST-hPPARα LBD (Homo sapiens, UniProt Q07869)", "T1 construct": "made in house; host or cells: E. coli BL21(DE3)", "T1 sequence (Q07869 167-468)": "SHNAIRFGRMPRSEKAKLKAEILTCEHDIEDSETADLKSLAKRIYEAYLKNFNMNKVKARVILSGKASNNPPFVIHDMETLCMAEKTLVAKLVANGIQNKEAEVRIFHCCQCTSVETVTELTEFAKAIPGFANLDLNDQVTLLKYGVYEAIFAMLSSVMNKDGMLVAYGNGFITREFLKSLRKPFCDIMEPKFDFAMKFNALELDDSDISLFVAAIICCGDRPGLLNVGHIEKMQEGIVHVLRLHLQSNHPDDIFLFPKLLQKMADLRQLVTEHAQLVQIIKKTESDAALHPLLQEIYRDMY", "T1 sequence (Q15788 676-700 partner limits assumed)": "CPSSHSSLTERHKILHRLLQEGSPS", "assay": "PPARα receptor binding assay (CARLA, TR-FRET functional binding)", "format": "biochemical", "settings": "TR-FRET coactivator (SRC-1 peptide) recruitment, 3 hours at room temperature", "protocol": "(§1) The in vitro functional binding to the PPARα, PPARδ and PPARγ receptors is determined as follows:\n(§2) The functional binding assays for the PPARα, PPARδ and PPARγ receptors are a variation of the coactivator-dependent receptor ligand assay (CARLA) (see Krey et al., “Fatty Acids, Eicosanoids, and Hypolipidemic Agents Identified as Ligands of Peroxisome Proliferator-Activated Receptors by Coactivator-Dependent Receptor Ligand Assay”, Molecular Endocrinology, Vol. 11, pp. 779-791 (1997)). The present CARLA assays use a TR-FRET detection method previously reviewed (see Hemmila, “LANCE: Homogeneous Assay Platform for HTS”, J. Biomol. Screening, Vol. 4, pp. 303-307 (1999); Mathis, “HTRF Technology”, J. Biomol. Screening, Vol. 4, pp. 309-313 (1999)). […] This brings the Eu-labeled anti-GST antibody and the strepavidin-labeled APC in close proximity, thereby facilitating fluorescence energy transfer. […] After mixing all components, the reaction mixture stands for 3 hours at room temperature before reading the TR-FRET (Time-Resolved Fluorescence Resonance Energy Transfer) signal on a Wallac Victor 2 plate reader (measuring the ratio of signals at […]). […]"}, "GST-hPPARγ LBD": {"molecular_target": "T2, GST-hPPARγ LBD (Homo sapiens, UniProt P37231)", "T2 construct": "GST-hPPARγ LBD (amino acids 175-476); made in house; host or cells: E. coli BL21(DE3)", "T2 sequence (P37231 175-476 isoform P37231-2)": "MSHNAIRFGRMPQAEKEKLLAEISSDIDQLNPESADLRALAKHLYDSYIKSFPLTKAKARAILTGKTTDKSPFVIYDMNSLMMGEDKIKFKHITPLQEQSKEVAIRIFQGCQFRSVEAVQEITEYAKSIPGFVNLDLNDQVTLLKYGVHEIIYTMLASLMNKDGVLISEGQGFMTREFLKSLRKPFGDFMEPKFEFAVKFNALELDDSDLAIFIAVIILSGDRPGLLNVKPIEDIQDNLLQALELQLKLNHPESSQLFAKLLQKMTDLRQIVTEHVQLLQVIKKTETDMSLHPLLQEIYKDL", "T2 sequence (Q15788 676-700 partner limits assumed)": "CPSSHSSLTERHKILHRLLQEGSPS", "assay": "PPARγ receptor binding assay (CARLA, TR-FRET functional binding)", "format": "biochemical", "settings": "TR-FRET coactivator (SRC-1 peptide) recruitment, 3 hours at room temperature", "protocol": "as §1, §2"}}}
{"smiles": "CCOC(=O)c1cn(CC)nc1NS(=O)(=O)c1ccc(OCc2nc(-c3ccc(C(F)(F)F)cc3)oc2C)cc1", "note": "[Example 1, 1-Ethyl-3-{4-[5-methyl-2-(4-trifluoromethyl-phenyl)oxazol-4-ylmethoxy]-benzene-sulfonylamino}-1H-pyrazole-4-carboxylic acid ethyl ester]", "values": [{"measurement": "EC50", "setting": "GST-hPPARα LBD", "value": "~5", "unit": "nM"}, {"measurement": "EC50", "setting": "GST-hPPARγ LBD", "value": "~3", "unit": "nM"}]}
